Data as given in patent publication US20230085307A1, “PYRIDAZINONE COMPOUND AND HERBICIDE” (NISSAN CHEMICAL CORPORATION, priority 2019, published 2023).

How the values were obtained:
late watergrass = test: Test Example 1: herbicidal activity, application before weed generation under submerged conditions (Table 16, symbol A); type: in vivo, late watergrass (Echinochloa oryzicola); conditions: 320 g/ha applied herbicide
Description: (§1) [Test Example 1] Herbicidal Activity Test by Application before Weed Generation under Submerged Conditions After alluvial soil was placed into 1/10000 are of Wagner pot, water was poured and mixed to form a submerged condition having a water depth of 4 cm. Seeds of late watergrass, Japanese bulrush, and oval-leafed pondweed were sowed in a mixed manner in the aforementioned pot, and then 2.5 leaf stage rice plant seedlings were transplanted thereto. On the day of sowing seeds, the emulsion agent of the compound of the present invention prepared according to Formulation Example 2 was diluted with water so as to achieve a predetermined herbicide amount, and the diluted emulsion agent was applied to the surface of the water. The pot was placed in a greenhouse at 25° C. to 30° C. for growth of the plants. Three weeks after the herbicide application, the effect of the herbicide on each plant was evaluated according to the following criteria. Evaluation Criteria 5: Herbicidal rate of 90% or more (almost completely withered) 4: Herbicidal rate of 70% or more and less than 90% 3: Herbicidal rate of 40% or more and less than 70% 2: Herbicidal rate of 20% or more and less than 40% 1: Herbicidal rate of 5% or more and less than 20% 0: Herbicidal rate of 5% or less (almost no effect)

Japanese bulrush = test: Test Example 1: herbicidal activity, application before weed generation under submerged conditions (Table 16, symbol B); type: in vivo, Japanese bulrush (Schoenoplectus juncoides); conditions: 320 g/ha applied herbicide
Summary of the method: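 Alluvial soil was flooded to 4 cm depth, weed seeds were sown mixed and 2.5-leaf rice seedlings were transplanted. On sowing day, the compound's emulsion, diluted in water to a set dose, was applied to the water surface. Plants grew at 25–30 °C and were scored 0–5 after three weeks.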

oval-leafed pondweed = test: Test Example 1: herbicidal activity, application before weed generation under submerged conditions (Table 16, symbol C); type: in vivo, oval-leafed pondweed (Monochoria vaginalis); conditions: 320 g/ha applied herbicide
Description: as §1

southern crabgrass = test: Test Example 5: herbicidal effect by foliage application, plastic box (Table 20, symbol F); type: in vivo, southern crabgrass (Digitaria ciliaris); conditions: foliage application, AAH 320 g/ha, evaluated three weeks after application
Summary of the method: (§2)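 Sow seeds spot-wise in sterilized diluvial soil; cover with ~1.5 cm soil. Grow 14 days in greenhouse, 25° C. to 30° C. Spray foliage with emulsion diluted to predetermined amount. Rate effect after 3 weeks.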

green foxtail = test: Test Example 5: herbicidal effect by foliage application, plastic box (Table 20, symbol G); type: in vivo, green foxtail (Setaria viridis); conditions: foliage application, AAH 320 g/ha, evaluated three weeks after application
Summary of the method: as §2

barnyard grass [1] = test: Test Example 5: herbicidal effect by foliage application, plastic box (Table 20, symbol H); type: in vivo, barnyard grass (Echinochloa crus-galli); conditions: foliage application, AAH 320 g/ha, evaluated three weeks after application
Summary of the method: as §2

wild oat = test: Test Example 5: herbicidal effect by foliage application, plastic box (Table 20, symbol I); type: in vivo, wild oat (Avena fatua); conditions: foliage application, AAH 320 g/ha, evaluated three weeks after application
Summary of the method: as §2

blackgrass = test: Test Example 5: herbicidal effect by foliage application, plastic box (Table 20, symbol J); type: in vivo, blackgrass (Alopecurus myosuroides); conditions: foliage application, AAH 320 g/ha, evaluated three weeks after application
Summary of the method: as §2

Italian ryegrass = test: Test Example 5: herbicidal effect by foliage application, plastic box (Table 20, symbol K); type: in vivo, Italian ryegrass (Lolium multiflorum); conditions: foliage application, AAH 320 g/ha, evaluated three weeks after application
Summary of the method: as §2

windgrass = test: Test Example 5: herbicidal effect by foliage application, plastic box (Table 20, symbol L); type: in vivo, windgrass (Apera spica-venti); conditions: foliage application, AAH 320 g/ha, evaluated three weeks after application
Summary of the method: as §2

velvetleaf = test: Test Example 5: herbicidal effect by foliage application, plastic box (Table 20, symbol M); type: in vivo, velvetleaf (Abutilon theophrasti); conditions: foliage application, AAH 320 g/ha, evaluated three weeks after application
Summary of the method: as §2

redroot pigweed = test: Test Example 5: herbicidal effect by foliage application, plastic box (Table 20, symbol N); type: in vivo, redroot pigweed (Amaranthus retroflexus); conditions: foliage application, AAH 320 g/ha, evaluated three weeks after application
Summary of the method: as §2

lambsquarters = test: Test Example 5: herbicidal effect by foliage application, plastic box (Table 20, symbol O); type: in vivo, lambsquarters (Chenopodium album); conditions: foliage application, AAH 320 g/ha, evaluated three weeks after application
Summary of the method: as §2

persian speedwell = test: Test Example 5: herbicidal effect by foliage application, plastic box (Table 20, symbol R); type: in vivo, Persian speedwell (Veronica persica); conditions: foliage application, AAH 320 g/ha, evaluated three weeks after application
Summary of the method: as §2

barnyard grass [2] = test: Test Example 3: herbicidal effect by foliage application, Wagner pot (Table 18, symbol H); type: in vivo, barnyard grass (Echinochloa crus-galli); conditions: amount of applied herbicide 320 g/ha
Summary of the method: (§3)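 Plants were sown in alluvial soil held under 0.1–0.5 cm standing water and grown 14 days in a greenhouse at 25–30 °C. An emulsifiable formulation, water-diluted to the set dose, was then sprayed onto the foliage, and effects were scored three weeks later using previously defined criteria.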

Chinese sprangletop = test: Test Example 3: herbicidal effect by foliage application, Wagner pot (Table 18, symbol D); type: in vivo, chinese sprangletop (Leptochloa chinensis); conditions: amount of applied herbicide 320 g/ha
Summary of the method: as §3

rice flat sedge = test: Test Example 3: herbicidal effect by foliage application, Wagner pot (Table 18, symbol E); type: in vivo, rice flat sedge (Cyperus iria); conditions: amount of applied herbicide 320 g/ha
Summary of the method: as §3

## CSCCOc1cccc(-c2sc3ccc(F)cc3c2-c2c(O)c(C)nn(C)c2=O)c1 [2-273]
Late watergrass
  Herbicidal effect on A: late watergrass (grade 0-5): 3 (Herbicidal rate of 40% or more and less than 70%)
Japanese bulrush
  Herbicidal effect on B: Japanese bulrush (grade 0-5): 0 (Herbicidal rate of 5% or less (almost no effect))
oval-leafed pondweed
  Herbicidal effect on C: oval-leafed pondweed (grade 0-5): 0 (Herbicidal rate of 5% or less (almost no effect))
Southern crabgrass
  F: southern crabgrass, herbicidal effect (criteria 0-5): 0 (Herbicidal rate of 5% or less (almost no effect))
Green foxtail
  G: green foxtail, herbicidal effect (criteria 0-5): 0 (Herbicidal rate of 5% or less (almost no effect))
Barnyard grass [1]
  H: barnyard grass, herbicidal effect (criteria 0-5): 0 (Herbicidal rate of 5% or less (almost no effect))
Wild oat
  I: wild oat, herbicidal effect (criteria 0-5): 0 (Herbicidal rate of 5% or less (almost no effect))
blackgrass
  J: blackgrass, herbicidal effect (criteria 0-5): 0 (Herbicidal rate of 5% or less (almost no effect))
Italian ryegrass
  K: Italian ryegrass, herbicidal effect (criteria 0-5): 1 (Herbicidal rate of 5% or more and less than 20%)
windgrass
  L: windgrass, herbicidal effect (criteria 0-5): 0 (Herbicidal rate of 5% or less (almost no effect))
velvetleaf
  M: velvetleaf, herbicidal effect (criteria 0-5): 0 (Herbicidal rate of 5% or less (almost no effect))
Redroot pigweed
  N: redroot pigweed, herbicidal effect (criteria 0-5): 2 (Herbicidal rate of 20% or more and less than 40%)
lambsquarters
  O: lambsquarters, herbicidal effect (criteria 0-5): 0 (Herbicidal rate of 5% or less (almost no effect))
Persian speedwell
  R: persian speedwell, herbicidal effect (criteria 0-5): 4 (Herbicidal rate of 70% or more and less than 90%)

## CCCC(=O)Oc1c(C)nn(C)c(=O)c1-c1c(-c2ccc(Cl)cc2Cl)sc2ccc(F)cc12 [2-347]
Late watergrass
  Herbicidal effect on A: late watergrass (grade 0-5): 3 (Herbicidal rate of 40% or more and less than 70%)
Japanese bulrush
  Herbicidal effect on B: Japanese bulrush (grade 0-5): 0 (Herbicidal rate of 5% or less (almost no effect))
oval-leafed pondweed
  Herbicidal effect on C: oval-leafed pondweed (grade 0-5): 0 (Herbicidal rate of 5% or less (almost no effect))
Barnyard grass [2]
  herbicidal effect on H: barnyard grass: 4 (Herbicidal rate of 70% or more and less than 90%)
Chinese sprangletop
  herbicidal effect on D: Chinese sprangletop: 4 (Herbicidal rate of 70% or more and less than 90%)
Rice flat sedge
  herbicidal effect on E: rice flat sedge: 4 (Herbicidal rate of 70% or more and less than 90%)
Southern crabgrass
  F: southern crabgrass, herbicidal effect (criteria 0-5): 0 (Herbicidal rate of 5% or less (almost no effect))
Green foxtail
  G: green foxtail, herbicidal effect (criteria 0-5): 0 (Herbicidal rate of 5% or less (almost no effect))
Barnyard grass [1]
  H: barnyard grass, herbicidal effect (criteria 0-5): 0 (Herbicidal rate of 5% or less (almost no effect))
Wild oat
  I: wild oat, herbicidal effect (criteria 0-5): 3 (Herbicidal rate of 40% or more and less than 70%)
blackgrass
  J: blackgrass, herbicidal effect (criteria 0-5): 0 (Herbicidal rate of 5% or less (almost no effect))
Italian ryegrass
  K: Italian ryegrass, herbicidal effect (criteria 0-5): 0 (Herbicidal rate of 5% or less (almost no effect))
windgrass
  L: windgrass, herbicidal effect (criteria 0-5): 3 (Herbicidal rate of 40% or more and less than 70%)
velvetleaf
  M: velvetleaf, herbicidal effect (criteria 0-5): 0 (Herbicidal rate of 5% or less (almost no effect))
Redroot pigweed
  N: redroot pigweed, herbicidal effect (criteria 0-5): 0 (Herbicidal rate of 5% or less (almost no effect))
lambsquarters
  O: lambsquarters, herbicidal effect (criteria 0-5): 3 (Herbicidal rate of 40% or more and less than 70%)
Persian speedwell
  R: persian speedwell, herbicidal effect (criteria 0-5): 4 (Herbicidal rate of 70% or more and less than 90%)
